# Experimental data reported in patent US11834430B2, “Compounds useful as inhibitors of isoprenylcysteine carboxyl methyltransferase” (AGENCY FOR SCIENCE, TECHNOLOGY AND RESEARCH, priority 2017, dated 2023).
# Values joined by “and” are separate entries in the source; they are usually repeats but may differ in a detail not shown here. Equal entries are not always repeated.
# Target: human ICMT (Homo sapiens (Human), UniProt O60725)
# Assay: ICMT biochemical assay (Methyltransferase-Glo)
# Conditions: ICMT membrane extract from Sf-9 cells; 30 min preincubation, 90 min reaction
# Experimental: Recombinant human ICMT was prepared by infection of Sf9 cells with a recombinant baculovirus containing the entire open reading frame of the human ICMT cDNA.
# Cells producing ICMT were harvested 66 hours post-infection. The cells are homogenized and resuspended in 5 mM NaHPO4 (pH 7.0), and a cocktail of protease inhibitors. The membrane was pelleted, after removal of nuclei and debris, at 100,000×g for 1 hour. Membranes were resuspended in 5 mM NaHPO4 (pH 7.0) with 5 mM EDTA at 10-12 mg/ml. The suspension was stored at −80° C. in multiple aliquots.
# An ICMT enzymatic assay was developed using Promega's Methyltransferase-GloTMreagents. In the assay, ICMT catalyzes the methylation of the N-Acetyl-S-farnesyl-L-cysteine by transferring a methyl group from SAM to the farnesylated cysteine and further converts the SAM to SAH. The methyltransferase activity is measured based on the amount of SAH produced from the reaction through the use of coupling enzymes that convert the SAH to ATP. The MTase-Glo detection solution then catalyzes the formation of light from ATP.
# A final concentration of 2.0 μM and 20 μM of SAM and peptide were added and further incubated for 90 minutes at room temperature before adding the MTase Glo and detection reagent. Reaction signals were detected using microplate readers on luminescent mode (Satire Tecan). The IC50 was determined by nonlinear regression, using GraphPad Prism version, 5.03.
# Chain of human ICMT (O60725 whole entry): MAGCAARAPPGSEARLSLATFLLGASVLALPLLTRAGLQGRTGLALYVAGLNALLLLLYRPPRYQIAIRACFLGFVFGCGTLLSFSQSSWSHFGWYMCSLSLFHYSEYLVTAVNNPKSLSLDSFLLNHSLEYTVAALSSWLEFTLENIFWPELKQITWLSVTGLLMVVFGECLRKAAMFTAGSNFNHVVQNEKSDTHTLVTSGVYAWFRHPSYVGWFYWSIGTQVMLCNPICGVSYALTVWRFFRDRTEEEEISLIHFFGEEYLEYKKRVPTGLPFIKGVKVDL
row,SMILES,IC50
1,"N#Cc1ccc(OCCOc2cccc(-n3cnnc3)c2)c(F)c1 [Compound 38, 4-(2-(3-(4H-1,2,4-triazol-4-yl)phenoxy)ethoxy)-3-fluorobenzonitrile]",310 nM
2,"Cc1cc(C#N)ccc1O[C@H](C)COc1cccc(-c2ccnn2C)c1 [Compound 39, (R)-3-methyl-4-((1-(3-(1-methyl-1H-pyrazol-5-yl)phenoxy)propan-2-yl)oxy)benzonitrile]",4.7 nM
3,"Cc1cc(C#N)ccc1O[C@@H](C)COc1cccc(-c2ccnn2C)c1 [Compound 40, (S)-3-methyl-4-((1-(3-(1-methyl-1H-pyrazol-5-yl)phenoxy)propan-2-yl)oxy)benzonitrile]",9.5 nM
4,"C[C@@H](COc1cccc(-n2ccnc2C2CC2)c1)Oc1ccc(C#N)cc1F [Compound 42, (S)-4-((1-(3-(2-cyclopropyl-1H-imidazol-1-yl)phenoxy)propan-2-yl)oxy)-3-fluorobenzonitrile]",12 nM
5,"Cc1nccn1-c1cccc(OCC(C)Oc2ccc(C#N)cc2Cl)c1 (centres unmarked) [Compound 44, 3-chloro-4-((1-(3-(2-methyl-1H-imidazol-1-yl)phenoxy)propan-2-yl)oxy)benzonitrile]",780 nM
6,"COc1cc(C#N)ccc1O[C@H](C)COc1cccc(-c2ccnn2C)c1 [Compound 48, (R)-3-methoxy-4-((1-(3-(1-methyl-1H-pyrazol-5-yl)phenoxy)propan-2-yl)oxy)benzonitrile]",0.64 nM
7,"Cc1cc(C#N)ccc1O[C@@H](C)COc1cccc(-n2ccnc2C2CC2)c1 [Compound 49, (S)-4-((1-(3-(2-cyclopropyl-1H-imidazol-1-yl)phenoxy)propan-2-yl)oxy)-3-methylbenzonitrile]",0.3 nM
8,"Fc1cc(Cl)ccc1OCCOc1cccc(-n2ccnc2C2CC2)c1 [Compound 50, 1-(3-(2-(4-chloro-2-fluorophenoxy)ethoxy)phenyl)-2-cyclopropyl-1H-imidazole]",12 nM
9,"C#Cc1ccc(OCCOc2cccc(-n3ccnc3C)c2)c(F)c1 [Compound 51, 1-(3-(2-(4-ethynyl-2-fluorophenoxy)ethoxy)phenyl)-2-methyl-1H-imidazole]",20 nM
10,"N#Cc1ccc(OCCOc2cccc(-n3ccnc3C3CC3)c2)c(N)c1 [Compound 52, 3-amino-4-(2-(3-(2-cyclopropyl-1H-imidazol-1-yl)phenoxy)ethoxy)benzonitrile]",3.6 nM
11,"Cn1nccc1-c1cccc(OCCOc2ccc(F)cc2C#N)c1 [Compound 54, 5-fluoro-2-(2-(3-(1-methyl-1H-pyrazol-5-yl)phenoxy)ethoxy)benzonitrile]",32 nM
12,"Cc1nccn1-c1cccc(OC[C@@H](C)Oc2ccc(C#N)cc2Cl)c1 [Compound 55, (R)-3-chloro-4-((1-(3-(2-methyl-1H-imidazol-1-yl)phenoxy)propan-2-yl)oxy)benzonitrile]",11 nM
13,"Cc1nccn1-c1cccc(OC[C@H](C)Oc2ccc(C#N)cc2Cl)c1 [Compound 56, (S)-3-chloro-4-((1-(3-(2-methyl-1H-imidazol-1-yl)phenoxy)propan-2-yl)oxy)benzonitrile]",0.15 nM
14,"Cn1nccc1-c1cccc(OCCOc2ccc(C#N)cc2)c1 [Compound 57, 4-(2-(3-(1-methyl-1H-pyrazol-5-yl)phenoxy)ethoxy)benzonitrile]",9 nM
15,"Cc1ccc(OCCOc2cccc(-n3ccnc3C)c2)c(F)c1 [Compound 58, 1-(3-(2-(2-fluoro-4-methylphenoxy)ethoxy)phenyl)-2-methyl-1H-imidazole]",60 nM
16,"N#Cc1ccc(OCCOc2cccc(-n3ccnc3C3CC3)c2)cc1 [Compound 62, 4-(2-(3-(2-cyclopropyl-1H-imidazol-1-yl)phenoxy)ethoxy)benzonitrile]",8.5 nM
17,"Cc1nccn1-c1cccc(OC(C)C(C)Oc2ccc(C#N)cc2F)c1 (centres unmarked) [Compound 63, 3-fluoro-4-(3-(3-(2-methyl-1H-imidazol-1-yl)phenoxy)butan-2-yloxy)benzonitrile]",18 nM and 6 nM
18,"CC(COc1cccc(-c2ccno2)c1)Oc1ccc(C#N)cc1F (centres unmarked) [Compound 64, 3-fluoro-4-((1-(3-(isoxazol-5-yl)phenoxy)propan-2-yl)oxy)benzonitrile]",270 nM and 470 nM
19,"C[C@H](COc1cccc(-c2ccno2)c1)Oc1ccc(C#N)cc1F [Compound 65, (R)-3-fluoro-4-((1-(3-(isoxazol-5-yl)phenoxy)propan-2-yl)oxy)benzonitrile]",4670 nM and 4390 nM

row,SMILES,IC50
1,"C[C@@H](COc1cccc(-c2ccno2)c1)Oc1ccc(C#N)cc1F [Compound 66, (S)-3-fluoro-4-((1-(3-(isoxazol-5-yl)phenoxy)propan-2-yl)oxy)benzonitrile]",180 nM and 190 nM
2,"N#Cc1ccc(OCCOc2cccc(-c3cnoc3)c2)cc1 [Compound 67, 4-(2-(3-(isoxazol-4-yl)phenoxy)ethoxy)benzonitrile]",140 nM and 100 nM
3,"Cc1cc(C#N)ccc1O[C@H](C)COc1cccc(-n2ccnc2C2CC2)c1 [Compound 68, (R)-4-((1-(3-(2-cyclopropyl-1H-imidazol-1-yl)phenoxy)propan-2-yl)oxy)-3-methylbenzonitrile]",1.5 nM and 13 nM
4,"COc1cc(C#N)ccc1O[C@@H](C)COc1cccc(-n2ccnc2C)c1 [Compound 72, (S)-3-methoxy-4-((1-(3-(2-methyl-1H-imidazol-1-yl)phenoxy)propan-2-yl)oxy)benzonitrile]",4.5 nM
5,"Cc1nccn1-c1cccc(OCCOc2ccc(C#N)nn2)c1 [Compound 73, 6-(2-(3-(2-methyl-1H-imidazol-1-yl)phenoxy)ethoxy)pyridazine-3-carbonitrile]",950 nM
6,"Cc1nccn1-c1cccc(OCCOc2ncc(C#N)cc2F)c1 [Compound 74, 5-fluoro-6-(2-(3-(2-methyl-1H-imidazol-1-yl)phenoxy)ethoxy)nicotinonitrile]",65 nM
7,"Cn1nccc1-c1cccc(OCCOc2ccc(C#N)cn2)c1 [Compound 75, 6-(2-(3-(1-methyl-1H-pyrazol-5-yl)phenoxy)ethoxy)nicotinonitrile]",60 nM and 62 nM
8,"Cc1nccn1-c1cccc(OC[C@H](C)Oc2ccc(C#N)cc2F)c1 [Compound 79, (S)-3-fluoro-4-((1-(3-(2-methyl-1H-imidazol-1-yl)phenoxy)propan-2-yl)oxy)benzonitrile]",31 nM
9,"Cn1nccc1-c1cccc(OCCOc2ncc(C#N)cc2F)c1 [Compound 82, 5-fluoro-6-(2-(3-(1-methyl-1H-pyrazol-5-yl)phenoxy)ethoxy)nicotinonitrile]",210 nM and 190 nM
10,"N#Cc1cnc(OCCOc2cccc(-n3ccnc3C3CC3)c2)c(F)c1 [Compound 83, 6-(2-(3-(2-cyclopropyl-1H-imidazol-1-yl)phenoxy)ethoxy)-5-fluoronicotinonitrile]",3.7 nM
11,"N#Cc1ccc(OCCOc2cccc(-c3cnoc3)c2)c(F)c1 [Compound 84, 3-fluoro-4-(2-(3-(isoxazol-4-yl)phenoxy)ethoxy)benzonitrile]",28 nM
12,"Cc1nccn1-c1cc(OCCOc2ccc(C#N)cc2)ccn1 [Compound 85, 4-(2-((2-(2-methyl-1H-imidazol-1-yl)pyridin-4-yl)oxy)ethoxy)benzonitrile]",15 nM
13,"Cc1nccn1-c1cccc(OCCOc2ccc(C#N)cc2F)n1 [Compound 86, 3-fluoro-4-(2-((6-(2-methyl-1H-imidazol-1-yl)pyridin-2-yl)oxy)ethoxy)benzonitrile]",17 nM
14,"Cc1nccn1-c1cc(OCCOc2ncc(C#N)cc2F)ccc1F [Compound 87, 5-fluoro-6-(2-(4-fluoro-3-(2-methyl-1H-imidazol-1-yl)phenoxy)ethoxy)nicotinonitrile]",33 nM
15,"N#Cc1ccc(OCCOc2ccnc(-n3ccnc3C3CC3)c2)cc1 [Compound 89, 4-(2-((2-(2-cyclopropyl-1H-imidazol-1-yl)pyridin-4-yl)oxy)ethoxy)benzonitrile]",2.8 nM
16,"N#Cc1cnc(OCCOc2ccnc(-n3ccnc3C3CC3)c2)c(F)c1 [Compound 90, 6-(2-((2-(2-cyclopropyl-1H-imidazol-1-yl)pyridin-4-yl)oxy)ethoxy)-5-fluoronicotinonitrile]",37 nM
17,"Cc1nccn1-c1cc(OCCOc2ncc(C#N)cc2F)ccn1 [Compound 91, 5-fluoro-6-(2-((2-(2-methyl-1H-imidazol-1-yl)pyridin-4-yl)oxy)ethoxy)nicotinonitrile]",120 nM
18,"Cn1nccc1-c1cncc(OCCOc2ccc(C#N)cc2F)c1 [Compound 92, 3-fluoro-4-(2-((5-(1-methyl-1H-pyrazol-5-yl)pyridin-3-yl)oxy)ethoxy)benzonitrile]",300 to 1000 nM

# Same assay, conditions: unit (nM)
row,SMILES,IC50 [nM]
1,"COc1cc(C#N)ccc1O[C@@H](C)COc1cccc(-c2ccnn2C)c1 [Compound 60, (S)-3-methoxy-4-((1-(3-(1-methyl-1H-pyrazol-5-yl)phenoxy)propan-2-yl)oxy)benzonitrile]",0.81
2,"Cc1cc(C#N)ccc1OC(C)COc1cccc(-n2ccnc2C2CC2)c1 (centres unmarked) [Compound 61, 4-((1-(3-(2-cyclopropyl-1H-imidazol-1-yl)phenoxy)propan-2-yl)oxy)-3-methylbenzonitrile]",0.88
3,"N#Cc1ccc(OCCOc2ccnc(-n3ccnc3C3CC3)c2)c(F)c1 [Compound 76, 4-(2-((2-(2-cyclopropyl-1H-imidazol-1-yl)pyridin-4-yl)oxy)ethoxy)-3-fluorobenzonitrile]",0.39
4,"COc1cc(C#N)ccc1O[C@H](C)COc1cccc(-n2ccnc2C)c1 [Compound 77, (R)-3-methoxy-4-((1-(3-(2-methyl-1H-imidazol-1-yl)phenoxy)propan-2-yl)oxy)benzonitrile]",0.7
